The values that follow come from US20240228488A1 (TAKEDA PHARMACEUTICAL COMPANY LIMITED, priority 2021, published 2024).

human activated kallikrein enzyme, sequence (P03952 391-638 limits assumed): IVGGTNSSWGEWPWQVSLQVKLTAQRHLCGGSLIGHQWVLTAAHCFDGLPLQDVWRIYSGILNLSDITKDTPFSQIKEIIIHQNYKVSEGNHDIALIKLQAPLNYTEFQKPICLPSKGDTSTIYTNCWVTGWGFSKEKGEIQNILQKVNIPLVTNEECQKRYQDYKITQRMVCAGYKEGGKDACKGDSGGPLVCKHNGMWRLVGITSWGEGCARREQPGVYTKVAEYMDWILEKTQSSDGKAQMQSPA
human activated kallikrein enzyme, sequence (P03952 20-390 partner limits assumed): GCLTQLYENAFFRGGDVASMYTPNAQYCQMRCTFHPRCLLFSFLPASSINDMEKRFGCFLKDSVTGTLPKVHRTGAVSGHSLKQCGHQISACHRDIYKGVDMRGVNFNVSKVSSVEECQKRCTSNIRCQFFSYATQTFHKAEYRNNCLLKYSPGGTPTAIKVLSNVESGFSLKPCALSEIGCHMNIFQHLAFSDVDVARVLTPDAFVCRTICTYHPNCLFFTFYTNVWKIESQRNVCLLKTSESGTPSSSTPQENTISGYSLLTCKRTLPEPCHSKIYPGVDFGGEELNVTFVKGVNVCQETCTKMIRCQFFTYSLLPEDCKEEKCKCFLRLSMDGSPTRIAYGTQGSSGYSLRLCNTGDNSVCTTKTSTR

The first assay concerns the target human activated kallikrein enzyme (Homo sapiens, UniProt P03952). In words: Plasma kallikrein inhibition, fluorogenic PFR-AMC substrate, 500 pM activated kallikrein format. The class given is biochemical. To be noted: 500 pM activated kallikrein, 300 uM PFR-AMC, 30 min preincubation, 10 min reaction; read-out: Primary Dose Response Assay: Average EC50. The gist of the method:
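Enzyme at 500 pM preincubated 30 min RT with inhibitors in 20 mM Tris pH 7.5, 1 mM EDTA, 150 mM NaCl, 0.1% PEG-400, 0.1% Triton X-100. Reaction started with 300 uM PFR-AMC, run 10 min RT; fluorescence read at 460 nm emission, 380 nm excitation. EC50 reported in ranges.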
`Nc1cc(Cl)cc([C@H]2C[C@@H]2C(=O)Nc2cc(NCc3cn4cc(C5CC5)ccc4n3)ncn2)c1` (single isomer, unassigned) [Example I-257, rac-(1S*,2S*)-2-(3-amino-5-chlorophenyl)-N-(6-(((6-cyclopropylimidazo[1,2-a]pyridin-2-yl)methyl)amino)pyrimidin-4-yl)cyclopropane-1-carboxamide]: the EC50 (as a rule, the concentration at which the effect is half-maximal) lay in the range of 0.001 to 0.01 µM.
On the same count and under the same terms, the figure for `O=C(Nc1cc(NCc2cn3cc(C4CC4)ccc3n2)ncn1)[C@@H]1C[C@]12C(=O)Nc1ccc(Cl)cc12` (racemic) [Example 509, rac-(1R*,2S*)-5′-chloro-N-(6-(((6-cyclopropylimidazo[1,2-a]pyridin-2-yl)methyl)amino)pyrimidin-4-yl)-2′-oxospiro[cyclopropane-1,3′-indoline]-2-carboxamide] is < 0.001 µM.
The same measure, in the same setting: the figure for `COc1cc(NC(=O)[C@H]2C[C@@H]2c2nccc(C)n2)nc(OCc2cn3cc(C4CC4)cc(N4CC(=O)N(C)C4=O)c3n2)c1` [Example 38, (1S,2S)-N-(6-((6-cyclopropyl-8-(3-methyl-2,4-dioxoimidazolidin-1-yl)imidazo[1,2-α]pyridin-2-yl)methoxy)-4-methoxypyridin-2-yl)-2-(4-methylpyrimidin-2-yl)cyclopropane-1-carboxamide] is 0.001 to 0.01 µM; for `C#Cc1cccc([C@H]2C[C@@H]2C(=O)Nc2cc(N3C[C@@H](O)C[C@@H]3c3cn4cc(C5CC5)ccc4n3)ncn2)c1` [Example 486, (1S,2S)-N-(6-((2R,4S)-2-(6-cyclopropylimidazo[1,2-a]pyridin-2-yl)-4-hydroxypyrrolidin-1-yl)pyrimidin-4-yl)-2-(3-ethynylphenyl)cyclopropane-1-carboxamide] it is 0.001 to 0.01 µM; for `O=C(Nc1nccc2c1cnn2Cc1cn2cc(C3CC3)ccc2n1)[C@H]1C[C@@H]1c1cccc(Cl)c1` [Example 584, (1S,2S)-2-(3-chlorophenyl)-N-(1-((6-cyclopropylimidazo[1,2-a]pyridin-2-yl)methyl)-1H-pyrazolo[4,3-c]pyridin-4-yl)cyclopropane-1-carboxamide] it is 1 to 6 µM.
The same measure, in the same setting: the result for `O=C(Nc1cc(NCc2cn3cc(C4CC4)ccc3n2)ccn1)[C@H]1C[C@@H]1c1cc(Cl)ncn1` (racemic) [Example I-210, rac-(1S*,2S*)-2-(6-chloropyrimidin-4-yl)-N-(4-(((6-cyclopropylimidazo[1,2-a]pyridin-2-yl)methyl)amino)pyridin-2-yl)cyclopropane-1-carboxamide] reads 0.1 to 1 µM; that for `NC(=O)c1cc(C2CC2)cn2cc(CNc3cc(NC(=O)[C@H]4C[C@@H]4c4cccc(Cl)c4)ncn3)nc12` [Example 302, 2-(((6-((1S,2S)-2-(3-chlorophenyl)cyclopropane-1-carboxamido)pyrimidin-4-yl)amino)methyl)-6-cyclopropylimidazo[1,2-a]pyridine-8-carboxamide], 0.001 to 0.01 µM.
On to `O=C(NCc1cn(Cc2cn3cc(C4CC4)cc(-n4cnnc4)c3n2)nn1)[C@H]1C[C@@H]1c1cccc(Cl)c1` [Example 591, (1S,2S)-2-(3-chlorophenyl)-N-((1-((6-cyclopropyl-8-(4H-1,2,4-triazol-4-yl)imidazo[1,2-a]pyridin-2-yl)methyl)-1H-1,2,3-triazol-4-yl)methyl)cyclopropane-1-carboxamide], for which the EC50 lay in the range of 0.001 to 0.01 µM.
Same read-out and setting: the result for `CCOC(=O)c1nc(NCc2cn3cc(C4CC4)ccc3n2)cc(NC(=O)[C@H]2C[C@@H]2c2cccc(Cl)c2)n1` (racemic) [Example 111, rac-ethyl 4-((1S*,2S*)-2-(3-chlorophenyl)cyclopropane-1-carboxamido)-6-(((6-cyclopropylimidazo[1,2-a]pyridin-2-yl)methyl)amino)pyrimidine-2-carboxylate] reads 0.001 to 0.01 µM.
The same measure, in the same setting: the result for `O=C(Nc1cc(NCc2cn3cc(C4CC4)cc(N4CCOCC4)c3n2)ncn1)[C@H]1C[C@@H]1c1cccc(Cl)c1` [Example I-154, (1S,2S)-2-(3-chlorophenyl)-N-(6-(((6-cyclopropyl-8-morpholinoimidazo[1,2-a]pyridin-2-yl)methyl)amino)pyrimidin-4-yl)cyclopropane-1-carboxamide] reads 0.001 to 0.01 µM; that for `O=C(Nc1cc(NCc2cn3cc(C4CC4)cc(N4CCN(C5CC5)CC4)c3n2)ncn1)[C@H]1C[C@@H]1c1cccc(Cl)c1` [Example I-201, (1S,2S)-2-(3-chlorophenyl)-N-(6-(((6-cyclopropyl-8-(4-cyclopropylpiperazin-1-yl)imidazo[1,2-a]pyridin-2-yl)methyl)amino)pyrimidin-4-yl)cyclopropane-1-carboxamide], 0.001 to 0.01 µM.
Still for that read-out and setting: the figure for `O=C(Nc1cc(NCc2cn3cc(C4CC4)ccc3n2)ccn1)[C@H]1C[C@@H]1c1ccnc(Cl)c1` (racemic) [Example I-220, rac-(1S*,2S*)-2-(2-chloropyridin-4-yl)-N-(4-(((6-cyclopropylimidazo[1,2-a]pyridin-2-yl)methyl)amino)pyridin-2-yl)cyclopropane-1-carboxamide] is 0.01 to 0.1 µM; for `O=C(Nc1cc(NCc2cn3cc(C4CC4)cc(N4CCOCC4=O)c3n2)ncn1)[C@H]1C[C@@H]1c1cccc(Cl)c1` (racemic) [Example 74, rac-(1S*,2S*)-2-(3-chlorophenyl)-N-(6-(((6-cyclopropyl-8-(3-oxomorpholino)imidazo[1,2-a]pyridin-2-yl)methyl)amino)pyrimidin-4-yl)cyclopropane-1-carboxamide] it is < 0.001 µM; for `O=C(Nc1cc(NCc2cn3cc(C4CC4)ccc3n2)ncn1)[C@@H]1C[C@H]1c1cccc(Cl)c1` (single isomer, unassigned) [Example 56] it is 0.1 to 1 µM.
In the case of `COc1cccc([C@H]2C[C@@H]2C(=O)Nc2cc(NCc3cn4cc(C5CC5)ccc4n3)ncn2)c1` (racemic) [Example 53, rac-(1S*,2S*)-N-(6-(6-cyclopropylimidazo[1,2-a]pyridin-2-yl)methyl)amino)pyrimidin-4-yl)-2-(3-methoxyphenyl)cyclopropane-1-carboxamide], the EC50 lay within 0.1 to 1 µM.
Same read-out and setting: the figure for `CNc1nnc(NC(=O)[C@H]2C[C@@H]2c2nccc(C)n2)cc1OCc1cn2cc(C3CC3)cc(N3CC(=O)N(C)C3=O)c2n1` [Example 670, (1S,2S)—N-(5-((6-cyclopropyl-8-(3-methyl-2,4-dioxoimidazolidin-1-yl)imidazo[1,2-a]pyridin-2-yl)methoxy)-6-(methylamino)pyridazin-3-yl)-2-(4-methylpyrimidin-2-yl)cyclopropane-1-carboxamide] is < 0.001 µM; for `N#Cc1cc(Cl)sc1[C@H]1C[C@@H]1C(=O)Nc1cc(NCc2cn3cc(C4CC4)ccc3n2)ccn1` (racemic) [Example I-212, rac-(1S*,2S*)-2-(5-chloro-3-cyanothiophen-2-yl)-N-(4-(((6-cyclopropylimidazo[1,2-a]pyridin-2-yl)methyl)amino)pyridin-2-yl)cyclopropane-1-carboxamide] it is 0.001 to 0.01 µM.
Same read-out and setting: the result for `N[C@H]1C[C@H](c2cn3cc(C4CC4)ccc3n2)N(c2cc(NC(=O)[C@H]3C[C@@H]3c3cccc(Cl)c3)ncn2)C1` [Example 297, (1S,2S)—N-(6-((2R,4S)-4-amino-2-(6-cyclopropylimidazo[1,2-a]pyridin-2-yl)pyrrolidin-1-yl)pyrimidin-4-yl)-2-(3-chlorophenyl)cyclopropane-1-carboxamide] reads 1 to 6 µM.

Staying with this assay, now noted: comparative compounds, 500 pM activated kallikrein format; read-out: Primary Dose Response Assay: Average EC50.
For the molecule `O=C(NC1CC1Cc1cccc(Cl)c1)c1cnn(Cc2cn3cc(C4CC4)ccc3n2)c1` (stereo not shown), the EC50 is 1 to 6 µM.
